Activity calls are given as the source filed them.
Legend:
[1] = reduced cellular PGC1a acetyl-lysine signal – cell-based, cherry-picked samples, dose response (AID 720514); format: functional;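 note: potency may reflect raised or lowered acetylation signal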
Cytochrome P450 1A2 = target: T1, Cytochrome P450 1A2 (Homo sapiens, UniProt P05177);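 note: PubChem cytochrome P450 panel assay, CYP1A2 panel member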
T1 sequence (P05177 whole entry): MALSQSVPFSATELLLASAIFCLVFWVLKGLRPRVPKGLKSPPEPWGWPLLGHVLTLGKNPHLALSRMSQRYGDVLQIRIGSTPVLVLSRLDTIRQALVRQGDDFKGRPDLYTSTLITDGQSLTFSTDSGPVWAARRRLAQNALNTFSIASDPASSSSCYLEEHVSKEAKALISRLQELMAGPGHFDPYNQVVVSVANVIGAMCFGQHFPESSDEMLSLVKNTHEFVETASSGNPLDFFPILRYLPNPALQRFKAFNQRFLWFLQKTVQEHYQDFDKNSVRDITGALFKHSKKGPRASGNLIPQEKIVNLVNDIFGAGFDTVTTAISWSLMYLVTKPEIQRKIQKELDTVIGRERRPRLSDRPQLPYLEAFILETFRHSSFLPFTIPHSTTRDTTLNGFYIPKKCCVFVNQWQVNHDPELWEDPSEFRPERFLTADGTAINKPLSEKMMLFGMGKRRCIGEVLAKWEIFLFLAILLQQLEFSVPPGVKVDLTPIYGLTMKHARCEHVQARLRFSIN

Cytochrome P450 2C9 = Cytochrome P450 2C9 (Homo sapiens, UniProt P11712)
[2] = target: 1-phosphatidylinositol 4,5-bisphosphate phosphodiesterase gamma-1 (Homo sapiens, UniProt P19174); assay: Counterscreen for inhibitors of phospholipase C isozymes (PLC-B3): Fluorescence-based biochemical high throughput dose response assay to identify inhibitors of phospholipase C isozymes (PLC-gamma1).
[3] = target: 1-phosphatidylinositol 4,5-bisphosphate phosphodiesterase beta-3 (Homo sapiens, UniProt Q01970); assay: Fluorescence-based biochemical high throughput dose response assay to identify inhibitors of phospholipase C isozymes (PLC-B3).
[4] = target: RNA-editing ligase 1, mitochondrial (Trypanosoma brucei brucei, UniProt P86926); assay: inhibition of trypanosome RNA editing ligase – biochemical, fluorescence, Trypanosoma brucei, dose response (AID 1117295); format: functional
[5] = target: T2, Oxysterols receptor LXR-beta (Homo sapiens, UniProt P55055); format: functional, cell-based;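 note: agonist activity at LXR measured by a cell-based luminescence readout across a dose range, run as a counterscreen for daf-12 agonists; potency for activation of Gal4-LXR reporter so compounds are agonists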
T2 sequence (P55055 whole entry): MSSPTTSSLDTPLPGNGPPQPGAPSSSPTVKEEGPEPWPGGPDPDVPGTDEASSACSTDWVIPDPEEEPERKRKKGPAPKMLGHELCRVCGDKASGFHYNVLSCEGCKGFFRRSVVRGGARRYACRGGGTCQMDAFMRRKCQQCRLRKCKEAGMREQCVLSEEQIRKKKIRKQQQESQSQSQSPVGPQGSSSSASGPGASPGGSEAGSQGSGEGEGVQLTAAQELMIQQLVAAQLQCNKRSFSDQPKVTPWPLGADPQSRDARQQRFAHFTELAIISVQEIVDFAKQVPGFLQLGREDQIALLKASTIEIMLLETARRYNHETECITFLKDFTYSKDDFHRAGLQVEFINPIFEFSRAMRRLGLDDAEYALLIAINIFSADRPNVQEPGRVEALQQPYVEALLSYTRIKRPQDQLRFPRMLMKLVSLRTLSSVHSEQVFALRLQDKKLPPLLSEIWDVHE

cells [6] = assay: cells
Major prion protein = Major prion protein (Homo sapiens, UniProt P04156); format: functional, cell-based
cells [7] = conditions: HEK293
Protein Tat = Protein Tat (Human immunodeficiency virus type 1 group M subtype B (isolate HXB2)(HIV-1), UniProt P04608); format: functional;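 note: tat binding to TAR RNA read out by fluorescence polarization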
fMet-Leu-Phe receptor = fMet-Leu-Phe receptor (Homo sapiens, UniProt P21462); assay: formyl peptide receptor binders – dose response (AID 519); format: functional
[8] = target: T3, Voltage-gated N-type calcium channel alpha-1B subunit/Amyloid beta A4 precursor protein-binding family A member 1 (Homo sapiens, UniProt Q00975+Q02410); format: protein assay
[9] = target: NAD-dependent protein deacylase sirtuin-5, mitochondrial (Homo sapiens, UniProt Q9NXA8); assay: sirtuin-5 deacylation blockers, concentration series – biochemical, fluorescence imaging, cherry-pick, set 5, dose response (AID 720591);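 note: desuccinylation of succinyl peptide AMC substrate read as fluorescence after trypsin release; potency of inhibitors that lower fluorescence and may act on trypsin instead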
[10] = target: T3, Voltage-gated N-type calcium channel alpha-1B subunit/Amyloid beta A4 precursor protein-binding family A member 1; format: protein assay; remark: listed apart in the source
Caspase-6 = Caspase-6 (Homo sapiens, UniProt P55212); assay: inhibition of CASP6 peptide cleavage – biochemical, VEID-R110 fluorescence, cherry-pick, dose response (AID 720632)
[11] = target: T4, Corticotropin-releasing factor receptor 2/Corticotropin-releasing factor-binding protein (Homo sapiens, UniProt P24387+Q13324); assay: activators of CRF receptor 2 with binding protein – uHTS hits, confirmation (AID 602473); format: functional; conditions: read-out: EC50_Mean
T4 sequence (Q13324 whole entry): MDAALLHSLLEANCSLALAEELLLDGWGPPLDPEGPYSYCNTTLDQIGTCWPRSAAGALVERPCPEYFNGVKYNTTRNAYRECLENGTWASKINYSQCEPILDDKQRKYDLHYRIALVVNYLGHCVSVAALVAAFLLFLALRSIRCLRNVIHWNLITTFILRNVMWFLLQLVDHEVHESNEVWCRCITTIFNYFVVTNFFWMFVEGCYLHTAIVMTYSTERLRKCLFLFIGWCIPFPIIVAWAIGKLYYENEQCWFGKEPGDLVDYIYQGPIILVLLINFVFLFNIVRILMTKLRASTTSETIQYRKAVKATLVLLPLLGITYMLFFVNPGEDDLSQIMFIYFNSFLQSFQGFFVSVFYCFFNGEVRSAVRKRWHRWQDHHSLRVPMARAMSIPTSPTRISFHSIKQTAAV
T4 sequence (P24387 whole entry): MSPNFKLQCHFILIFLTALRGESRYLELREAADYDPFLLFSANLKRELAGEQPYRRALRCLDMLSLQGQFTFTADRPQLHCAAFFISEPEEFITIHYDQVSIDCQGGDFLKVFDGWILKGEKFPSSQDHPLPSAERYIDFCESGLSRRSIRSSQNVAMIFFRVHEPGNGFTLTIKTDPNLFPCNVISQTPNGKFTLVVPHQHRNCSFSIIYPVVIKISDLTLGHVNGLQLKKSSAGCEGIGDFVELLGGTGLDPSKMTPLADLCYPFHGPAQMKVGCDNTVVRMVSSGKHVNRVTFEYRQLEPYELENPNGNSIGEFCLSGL

[12] = target: T4, Corticotropin-releasing factor receptor 2/Corticotropin-releasing factor-binding protein; assay: Dose Response confirmation of uHTS hits for small molecule antagonists of the CRF-binding protein and CRF-R2 receptor complex.; format: functional; conditions: read-out: IC50_Mean
[13] = target: T2, Oxysterols receptor LXR-beta; assay: LXR agonists, Gal4 luciferase reporter, dose response, counter-screen for ssDAF-12 agonist project, cell-based, luminescence, HEK293, S. stercoralis campaign (AID 720737); format: functional; conditions: read-out: IC50 (the source's name)
[14] = target: ATP-dependent molecular chaperone HSP82 (Candida albicans (strain WO-1) (Yeast), UniProt C4YTQ8); assay: steroid-induced GRE reporter decrease in yeast – S. cerevisiae, luminescence, Hsp90 inhibitor project, dose response (AID 2400); format: functional, cell-based;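 note: beta-galactosidase luminescence from glucocorticoid response element reporter as proxy for Hsp90 function; inhibitor potency where signal loss means Hsp90 inhibition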
[15] = target: T5, Serine/threonine-protein phosphatase (Candida dubliniensis (strain CD36 / CBS 7987 / NCPF 3949 / NRRLY-17841) (Yeast), UniProt B9W6M3); assay: blockers of CaCl2-induced CDRE-lacZ signaling – S. cerevisiae, luminescence, secondary, dose response (AID 2388); format: functional, cell-based;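 note: yeast reporter cells carrying a calcineurin-responsive lacZ construct stimulated with calcium chloride; luminescent beta-galactosidase reporter signal in whole cells rather than isolated phosphatase activity; potency for inhibition where a drop in reporter signal means calcineurin blockade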
T5 sequence (B9W6M3 whole entry): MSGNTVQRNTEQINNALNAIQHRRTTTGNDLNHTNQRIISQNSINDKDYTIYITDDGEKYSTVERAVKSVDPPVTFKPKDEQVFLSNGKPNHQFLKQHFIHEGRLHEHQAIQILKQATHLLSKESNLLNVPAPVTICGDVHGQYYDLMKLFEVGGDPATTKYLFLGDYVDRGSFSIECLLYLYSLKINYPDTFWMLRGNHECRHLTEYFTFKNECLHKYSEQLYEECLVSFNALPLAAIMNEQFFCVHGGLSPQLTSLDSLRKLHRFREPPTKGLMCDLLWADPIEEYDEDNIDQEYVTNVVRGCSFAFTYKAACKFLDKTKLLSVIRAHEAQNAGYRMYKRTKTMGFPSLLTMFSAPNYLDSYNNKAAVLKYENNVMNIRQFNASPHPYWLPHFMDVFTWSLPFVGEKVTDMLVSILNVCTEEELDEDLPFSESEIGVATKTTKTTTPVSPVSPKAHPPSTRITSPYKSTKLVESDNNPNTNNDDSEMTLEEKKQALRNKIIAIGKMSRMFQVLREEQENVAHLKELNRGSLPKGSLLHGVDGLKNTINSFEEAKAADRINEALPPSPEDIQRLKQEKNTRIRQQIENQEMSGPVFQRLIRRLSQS

[16] = Luminescence-based cell-based high throughput dose response assay to identify activators of the DAF-12 from the parasite S. stercoralis (ssDAF-12).; format: functional
[17] = NIH-3T3 fibroblast cytotoxicity, dose response, cytotoxicity control, cell-based, fluorescence, Alamar Blue, secondary assay (AID 2327); format: functional;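 note: NIH-3T3 mouse fibroblasts cultured with fluconazole at 8 µg/mL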
[18] = fluconazole-exposed Candida albicans growth modulators – fluorescence, retest, confirmation (AID 2467); format: functional, cell-based
[19] = toxicity to human HepG2 hepatoma cells – cell-based, plate reader, dry powder samples, cytotoxicity control, dose response (AID 1159569); format: functional;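 note: inhibitor potency with signal falling toward the positive control level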
[20] = growth inhibition of yeast DHODH-expressing 3D7 parasites – SYBR Green, dry powder samples, dose response (AID 1159570); format: functional, cell-based;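 note: parasite growth measured after 72 hours of compound exposure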
[21] = Dd2 malaria parasite growth inhibition potency – SYBR Green, dry powder samples, dose response (AID 1159566); format: functional, cell-based;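 note: potency for growth inhibition with lower SYBR green DNA signal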
[22] = P. falciparum Dd2 growth inhibitors, dose response, SYBR Green, cherry-picked samples (AID 1159567); format: functional, cell-based
[23] = growth inhibition of PfATP4-mutant resistant parasites – NITD609-resistant line, SYBR Green, dry powder, dose response (AID 1159571); format: functional, cell-based;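 note: parasites synchronized at ring stage by sorbitol before testing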
Cytochrome P450 2D6 = Cytochrome P450 2D6 (Homo sapiens, UniProt P10635);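 note: CYP2D6 member of a cytochrome P450 panel assay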

Compound: Cc1ccc(S(=O)(=O)N2CCCCC2C(=O)O)cc1 (stereo not drawn)
- AC50 [1]: 17.6 µM (active)

Compound: O=C(C[S+]([O-])c1cccc(Cl)c1)Nc1ccccc1Cl (stereo not drawn)
- AC50 (Cytochrome P450 1A2): 15.8 µM (inconclusive)
- AC50 (Cytochrome P450 2C9): inconclusive
- IC50 [2]: > 122 µM (inactive)
- IC50 [3]: > 122 µM (inactive)

Compound: C#CCOCCOCCOCCNc1nc(N2CCN(C(=O)[C@H](CCCCN)n3cc([C@@H](N)C(C)CC)nn3)CC2)nc(N2CCN(C(=O)[C@H](CCCCN)n3cc([C@@H](N)C(C)CC)nn3)CC2)n1 (stereo partly drawn)
- IC50 [4]: > 96.6 µM (inactive)

Compound: Brc1ccc(-c2noc(-c3ccccn3)n2)o1
- EC50 [5]: > 67.5 µM (inactive)

Compound: Cc1ccc(NS(=O)(=O)c2cc(C(=O)NCc3ccccn3)ccc2Cl)cc1C
- IC50 (cells [6]): > 138 µM (inactive)
- IC50 (Major prion protein): 13 µM (inactive)

Compound: CCc1nc(SCC(=O)Nc2ccc(N(C)C)cc2)c2ccccc2n1
- IC50 (cells [6]): > 138 µM (inactive)
- IC50 (Major prion protein): 4.47 µM (active)

Compound: COc1cc(/C=C(\C#N)C(=O)NC(C)C)cc(Cl)c1O
- AC50 (cells [7]): 50.3 µM (active)

Compound: CC1CCCN(C(=O)CN2CCN(C(=O)c3ccco3)CC2)C1 (stereo not drawn)
- IC50 (Protein Tat): > 100 µM (active)

Compound: CCn1cc(C(=O)NC2CCC(C)CC2)c(=O)c2cc(S(=O)(=O)N3CCCCC3)ccc21 (stereo not drawn)
- Ki (fMet-Leu-Phe receptor): > 66.7 µM (inactive)

Compound: COC(=O)C1=C(C)N(C)C(NCc2ccccc2C(F)(F)F)=NC1c1cccc(F)c1 (stereo not drawn)
- IC50 [4]: > 96.6 µM (inactive)

Compound: Cc1cc(NC(=O)c2ccc3c(c2)OCO3)ccc1NC(=O)c1ccccc1
- IC50 [2]: > 122 µM (inactive)
- IC50 [3]: > 122 µM (inactive)

Compound: COc1cc2c(cc1OC)-c1cc(Nc3ccc(C(=O)O)cc3)nc(=O)n1CC2
- IC50 [8]: > 50 µM (inactive)
- AC50 [9]: 4.29 µM (active)
- IC50 [10]: 17.6 µM (active)
- AC50 (Caspase-6): 28.9 µM (active)
- EC50 [11]: > 53 µM (inactive)
- IC50 [12]: > 47.1 µM (inactive)

Compound: Cc1ccc(-n2nc(C)c3c(C)cc(O)nc32)cc1
- EC50 [13]: > 67.5 µM (inactive)
- EC50 [14]: > 150 µM (inactive)
- EC50 [15]: > 180 µM (inactive)
- IC50 [16]: > 67.5 µM (inactive)
- EC50 [17]: > 150 µM (inactive)
- EC50 [18]: 1.54 µM (active)

Compound: COc1ccc(C#Cc2ccc([C@@H]3[C@@H](CO)N4C(=O)CN(C(=O)c5ccccc5)C[C@H]34)cc2)cc1
- AC50 [19]: 33.4 µM (active)
- AC50 [20]: 1.99 µM (active)
- AC50 [21]: 1.63 µM (active)
- AC50 [22]: 2.48 µM (active)
- AC50 [23]: 1.35 µM (active)

Compound: O=c1oc(-c2cc3ccccc3o2)nc2sc3c(c12)CCCC3
- EC50 [13]: > 67.5 µM (inactive)
- IC50 [16]: > 67.5 µM (inactive)

Compound: CCOC(=O)c1ccc(NC(=O)Nc2ccc3c4c(cccc24)C(=O)N3CC)cc1
- Ki (fMet-Leu-Phe receptor): > 66.7 µM (inactive)
- AC50 (Cytochrome P450 2D6): 17.8 µM (inconclusive)
